Assay results reported in patent US10618903B2, “Heteroaryl substituted aminopyridine compounds” (BRISTOL-MYERS SQUIBB COMPANY, priority 2015, dated 2020).

Target: IRAK4 (Homo sapiens (Human), UniProt Q9NWZ3)
Test: IRAK4 Inhibition Assay
Assay type: biochemical
Details: ATP 500 μM; IRAK4 0.6 nM
Method: The assays were performed in U-bottom 384-well plates. The final assay volume was 30 μL prepared from 15 μL additions of enzyme and substrates (fluoresceinated peptide and ATP) and test compounds in assay buffer (20 mM HEPES pH 7.2, 10 mM MgCl2, 0.015% Brij 35 and 4 mM DTT). The reaction was initiated by the combination of IRAK4 with substrates and test compounds. The reaction mixture was incubated at room temperature for 60 min. and terminated by adding 45 μL of 35 mM EDTA to each sample. The reaction mixture was analyzed on the Caliper LABCHIP® 3000 (Caliper, Hopkinton, Mass.) by electrophoretic separation of the fluorescent substrate and phosphorylated product. Inhibition data were calculated by comparison to no enzyme control reactions for 100% inhibition and vehicle-only reactions for 0% inhibition. The final concentrations of reagents in the assays are ATP, 500 μM; FL-IPTSPITTTYFFFKKK peptide 1.5 μM; IRAK4, 0.6 nM; and DMSO, 1.6%.

Sequence of IRAK4 (Q9NWZ3 whole entry): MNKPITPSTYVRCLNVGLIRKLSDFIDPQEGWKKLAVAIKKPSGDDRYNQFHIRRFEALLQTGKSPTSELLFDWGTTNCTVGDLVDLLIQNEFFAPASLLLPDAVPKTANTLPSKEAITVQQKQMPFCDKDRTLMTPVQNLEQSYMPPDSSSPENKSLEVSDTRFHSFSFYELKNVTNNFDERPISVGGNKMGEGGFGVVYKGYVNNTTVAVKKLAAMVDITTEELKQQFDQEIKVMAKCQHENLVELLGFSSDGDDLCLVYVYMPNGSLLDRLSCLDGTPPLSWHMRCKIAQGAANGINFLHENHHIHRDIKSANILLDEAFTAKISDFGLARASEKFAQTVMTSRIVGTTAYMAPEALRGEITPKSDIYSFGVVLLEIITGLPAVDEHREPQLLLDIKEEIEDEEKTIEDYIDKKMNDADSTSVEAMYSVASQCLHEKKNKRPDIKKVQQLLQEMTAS

Row | IC50 | SMILES
1 | 22 nM | COC1CC(Nc2cc(-c3cnn4cc(Cl)cnc34)ncc2C(=O)NC[C@@H](F)C(C)(C)O)CC1(F)F (single isomer, unassigned) [Example 14]
2 | 21 nM | CC(C)(O)[C@H](F)CNC(=O)c1cnc(-c2cnn3cc(C#N)cnc23)cc1N[C@H]1COC[C@@H]1F (single isomer, unassigned) [Example 116]
3 | 39 nM | CC(C)(O)[C@H](F)CNC(=O)c1cnc(-c2cnn3cc(C#N)cnc23)cc1N[C@H]1COC[C@@H]1F (single isomer, unassigned) [Example 117]
4 | 30 nM | CC(C)(O)[C@H](F)CNC(=O)c1cnc(-c2cnn3cc(C#N)cnc23)cc1NCC1(O)CCCOC1 (single isomer, unassigned) [Example 122]
5 | 42 nM | CC(C)(O)[C@H](F)CNC(=O)c1cnc(-c2cnn3cc(C#N)cnc23)cc1NCC1(O)CCCOC1 (single isomer, unassigned) [Example 123]
6 | 92 nM | CC(C)(O)[C@H](F)CNC(=O)c1cnc(-c2cnc3cccnn23)cc1NC1COCC1O (single isomer, unassigned) [Example 134]
7 | 44 nM | CC(C)(O)[C@H](F)CNC(=O)c1cnc(-c2cnc3cccnn23)cc1NC1COCC1O (single isomer, unassigned) [Example 135]
8 | 24 nM | CC(C)Nc1cc(-c2cnn3cc(Cl)cnc23)ncc1C(=O)NCC(F)C(O)(CO)CO (stereo not shown) [Example 8, 6-(6-chloropyrazolo[1,5-a]pyrimidin-3-yl)-N-(2-fluoro-3,4-dihydroxy-3-(hydroxymethyl)butyl)-4-(isopropylamino)nicotinamide]
9 | 5 nM | CC(C)Nc1cc(-c2cnn3cc(Cl)cnc23)ncc1C(=O)NCC(F)C1(O)COC1 (stereo not shown) [Example 9, 6-(6-chloropyrazolo[1,5-a]pyrimidin-3-yl)-N-(2-fluoro-2-(3-hydroxyoxetan-3-yl)ethyl)-4-(isopropylamino)nicotinamide]
10 | 99 nM | CC(C)Nc1cc(-c2cnn3cc(Cl)cnc23)ncc1C(=O)Nc1cnn(CC(=O)NC[C@@H](F)C(C)(C)O)c1 [Example 10, (R)-6-(6-chloropyrazolo[1,5-a]pyrimidin-3-yl)-N-(1-(2-((2-fluoro-3-hydroxy-3-methylbutyl)amino)-2-oxoethyl)-1H-pyrazol-4-yl)-4-(isopropylamino)nicotinamide]
11 | 14 nM | CO[C@H]1CC[C@H](NC(=O)c2cnc(-c3cnn4cc(Cl)cnc34)cc2NC(C)C)CC1 [Example 11, 6-(6-chloropyrazolo[1,5-a]pyrimidin-3-yl)-4-(isopropylamino)-N-((1R,4R)-4-methoxycyclohexyl)nicotinamide]
12 | 92 nM | CC(C)(F)CCNC(=O)c1cnc(-c2cnn3cc(Cl)cnc23)cc1NC1COC1 [Example 12, 6-(6-chloropyrazolo[1,5-a]pyrimidin-3-yl)-N-(3-fluoro-3-methylbutyl)-4-(oxetan-3-ylamino)nicotinamide]
13 | 19 nM | COC1CCC(F)(CCNC(=O)c2cnc(-c3cnn4cc(Cl)cnc34)cc2NC2COC2)CC1 (stereo not shown) [Example 17, 6-(6-chloropyrazolo[1,5-a]pyrimidin-3-yl)-N-(2-(1-fluoro-4-methoxycyclohexyl)ethyl)-4-(oxetan-3-ylamino)nicotinamide]
14 | 35 nM | CNC(=O)[C@H]1CC[C@H](NC(=O)c2cnc(-c3cnn4cc(Cl)cnc34)cc2NCC(C)(C)F)CC1 [Example 24, 6-(6-chloropyrazolo[1,5-a]pyrimidin-3-yl)-4-((2-fluoro-2-methylpropyl)amino)-N-((1r,4r)-4-(methylcarbamoyl)cyclohexyl)nicotinamide]
15 | 8 nM | CC(C)Nc1cc(-c2cnn3cc(Cl)cnc23)ncc1C(=O)NCCc1ccc(S(N)(=O)=O)cc1 [Example 26, 6-(6-chloropyrazolo[1,5-a]pyrimidin-3-yl)-4-(isopropylamino)-N-(4-sulfamoylphenethyl)nicotinamide]
16 | 24 nM | CC(C)Nc1cc(-c2cnn3cc(Cl)cnc23)ncc1C(=O)N[C@H]1CC[C@H](C(=O)NC(C)C)CC1 [Example 29, 6-(6-chloropyrazolo[1,5-a]pyrimidin-3-yl)-4-(isopropylamino)-N-((1r,4r)-4-(isopropylcarbamoyl)cyclohexyl)nicotinamide]
17 | 5 nM | CC(C)(O)[C@H](F)CNC(=O)c1cnc(-c2cnn3cc(Cl)cnc23)cc1N[C@@H]1CCN(c2ncc(F)cn2)C1 [Example 36, 6-(6-chloropyrazolo[1,5-a]pyrimidin-3-yl)-N—((R)-2-fluoro-3-hydroxy-3-methylbutyl)-4-(((R)-1-(5-fluoropyrimidin-2-yl)pyrrolidin-3-yl)amino)nicotinamide]
18 | 7 nM | CC1(CNc2cc(-c3cnn4cc(Cl)cnc34)ncc2C(=O)NC[C@@H](F)C(C)(C)O)COC1 [Example 38, (R)-6-(6-chloropyrazolo[1,5-a]pyrimidin-3-yl)-N-(2-fluoro-3-hydroxy-3-methylbutyl)-4-(((3-methyloxetan-3-yl)methyl)amino)nicotinamide]
19 | 18 nM | CC(C)(O)[C@H](F)CNC(=O)c1cnc(-c2cnn3cc(Cl)cnc23)cc1NCC1(O)COC1 [Example 39, (R)-6-(6-chloropyrazolo[1,5-a]pyrimidin-3-yl)-N-(2-fluoro-3-hydroxy-3-methylbutyl)-4-(((3-hydroxyoxetan-3-yl)methyl)amino)nicotinamide]
20 | 8 nM | CC(C)(O)[C@H](F)CNC(=O)c1cnc(-c2cnn3cc(Cl)cnc23)cc1N[C@@H]1COC[C@H]1O [Example 42, 6-(6-chloropyrazolo[1,5-a]pyrimidin-3-yl)-N—((R)-2-fluoro-3-hydroxy-3-methylbutyl)-4-(((3R,4S)-4-hydroxytetrahydrofuran-3-yl)amino) nicotinamide]
21 | 17 nM | CC(C)(O)[C@H](F)CNC(=O)c1cnc(-c2cnn3cc(Cl)cnc23)cc1N[C@@H]1COC[C@H]1F [Example 43, 6-(6-chloropyrazolo[1,5-a]pyrimidin-3-yl)-N—((R)-2-fluoro-3-hydroxy-3-methylbutyl)-4-(((3R,4S)-4-fluorotetrahydrofuran-3-yl)amino)nicotinamide]
22 | 34 nM | CNC(=O)Cn1cc(NC(=O)c2cnc(-c3cnn4cc(Cl)cnc34)cc2NC(C)C)cn1 [Example 45, 6-(6-chloropyrazolo[1,5-a]pyrimidin-3-yl)-4-(isopropylamino)-N-(1-(2-(methylamino)-2-oxoethyl)-1H-pyrazol-4-yl)nicotinamide]
23 | 4 nM | CC(C)(O)[C@H](F)CNC(=O)c1cnc(-c2cnn3cc(Cl)cnc23)cc1NC1CCOC1 (stereo partly drawn) [Example 53, 6-(6-chloropyrazolo[1,5-a]pyrimidin-3-yl)-N—((R)-2-fluoro-3-hydroxy-3-methylbutyl)-4-((tetrahydrofuran-3-yl)amino)nicotinamide]
24 | 3 nM | CC(C)(O)[C@H](F)CNC(=O)c1cnc(-c2cnn3cc(Cl)cnc23)cc1NC1CCOC1 (stereo partly drawn) [Example 54, 6-(6-chloropyrazolo[1,5-a]pyrimidin-3-yl)-N—((R)-2-fluoro-3-hydroxy-3-methylbutyl)-4-((tetrahydrofuran-3-yl)amino)nicotinamide]
25 | 9 nM | CC(C)Nc1cc(-c2cnn3cc(Cl)cnc23)ncc1C(=O)NCCC1(O)CCC(C)(O)CC1 (stereo not shown) [Example 55, 6-(6-chloropyrazolo[1,5-a]pyrimidin-3-yl)-N-(2-(1,4-dihydroxy-4-methylcyclohexyl)ethyl)-4-(isopropylamino)nicotinamide]
